Assay results from publication PMC8910920 (International Journal of Molecular Sciences, 2022).

How the values were obtained:
[1] = target: T1, rTRPM8 (Rattus norvegicus, UniProt Q8R455); experiment: Ca2+ microfluorography assay, HEK293 cells expressing rTRPM8, menthol activation; format: cell-based
T1 construct: expressed in transfected cells
Experimental: (§1) This represents a similar activity as β–lactam 2 and a somewhat higher potency than the model TRPM8 antagonists AMTB.
(§2) To measure the effect of the compounds against TRPM8 activity we used microfluorometry-based calcium flux assays with Fluo-4 NW Ca^2+ dye and fluorescence as described in [30]. Briefly, human embryonic kidney cell line (HEK293) cells stably transfected with rTRPM8 or hTRPM8 were seeded in 96-well plates at a cell density of 30,000 cells. After 2 days the medium was replaced with 100 μL of the dye, Fluo-4 NW, loading solution supplemented with probenecid 2.5 mM and incubated 1 h at 37 °C. The TRPM8 activity was measured using POLASTAR plate reader (BMG Labtech) setting the excitation wavelength at 485 nm and the emission wavelength at 520 nm. The baseline fluorescence was recorded for 3 cycles before the addition of vehicle compound at different concentrations and the antagonist, 10 μM AMTB. Fluorescence intensity was recorded during 7 more cycles and 100 μM menthol was added. Fluorescence intensity was recorded during 10 more cycles.
Data analysis: The Z-factor was calculated in each assay using the following equation: […]. In all the experiments, the Z-factor was ≥0.5. The effect of the compounds against TRPM8 activity was determined by normalizing their effect on the maximum fluorescence observed after application of 100 μM menthol. Decrease in menthol signal was expressed as percentage of inhibition (%). All data are expressed as the mean ± standard deviation (SD). Data are expressed as the concentration exerting a half-maximal inhibition of agonist-induced [Ca^2+]i elevation (IC50), which was calculated again using GraphPad Prism® software. All determinations were performed in triplicate (n = 3) in 3 independent experiments (N = 3).

[2] = target: T2, hTRPM8 (Homo sapiens, UniProt Q7Z2W7); experiment: Ca2+ microfluorography assay, HEK293 cells expressing hTRPM8; format: cell-based; settings: HEK293-hTRPM8, 100 μM menthol
T2 construct: expressed in transfected cells
Experimental: as §1, §2
Data analysis: The Z-factor was calculated in each assay using the following equation: (3 × (SDmax + SDmin))/(Mean max-Mean min). In all the experiments, the Z-factor was ≥0.5. The effect of the compounds against TRPM8 activity was determined by normalizing their effect on the maximum fluorescence observed after application of 100 μM menthol. […]

[3] = target: T3, hM3 (Homo sapiens, UniProt P20309); experiment: Radioligand binding assay, CHO cells, hM3; settings: radioligand [3H]4-DMAP
T3 construct: host or cells: CHO
Experimental: To define whether β–lactam derivative RGM8-51 could bind to CGRPR, CB2 and M3 receptors, in vitro binding assays were performed, using CHO cell lines transfected with these receptors. The degree of binding was determined by using specific radioligands for each receptor (Table 2, footnote).
These studies were subcontracted to Eurofins-CEREP or Eurofins-PANLABS. Briefly, agonists and antagonist assays were performed in cell cultures overexpressing the corresponding channel (CHO: TRPV1 and TRPA1; HEK293: TRPV3 and ASIC3). In vitro pharmacology, cellular channel functional assays: the compound was prepared in assay buffer to the final concentration, 10 μM. […] The agonist assay was conducted on fluorimeter instruments where the test compound, vehicle controls, and reference agonist were added to the assay plate after a fluorescence baseline was established. […] For the antagonist assay, the compound was pre-incubated for five minutes at room temperature, and then challenged with the EC80 concentration of the reference agonist after establishment of a fluorescence baseline. […] Binding assay results are expressed as a percent of control specific binding. […] Aqueous solubility (μM) was determined by comparing the peak area of the principal peak in a calibration standard (200 μM) containing organic solvent (methanol/water, 60/40, v/v) with the peak area of the corresponding peak in a buffer sample. […]

T1 sequence (Q8R455 whole entry): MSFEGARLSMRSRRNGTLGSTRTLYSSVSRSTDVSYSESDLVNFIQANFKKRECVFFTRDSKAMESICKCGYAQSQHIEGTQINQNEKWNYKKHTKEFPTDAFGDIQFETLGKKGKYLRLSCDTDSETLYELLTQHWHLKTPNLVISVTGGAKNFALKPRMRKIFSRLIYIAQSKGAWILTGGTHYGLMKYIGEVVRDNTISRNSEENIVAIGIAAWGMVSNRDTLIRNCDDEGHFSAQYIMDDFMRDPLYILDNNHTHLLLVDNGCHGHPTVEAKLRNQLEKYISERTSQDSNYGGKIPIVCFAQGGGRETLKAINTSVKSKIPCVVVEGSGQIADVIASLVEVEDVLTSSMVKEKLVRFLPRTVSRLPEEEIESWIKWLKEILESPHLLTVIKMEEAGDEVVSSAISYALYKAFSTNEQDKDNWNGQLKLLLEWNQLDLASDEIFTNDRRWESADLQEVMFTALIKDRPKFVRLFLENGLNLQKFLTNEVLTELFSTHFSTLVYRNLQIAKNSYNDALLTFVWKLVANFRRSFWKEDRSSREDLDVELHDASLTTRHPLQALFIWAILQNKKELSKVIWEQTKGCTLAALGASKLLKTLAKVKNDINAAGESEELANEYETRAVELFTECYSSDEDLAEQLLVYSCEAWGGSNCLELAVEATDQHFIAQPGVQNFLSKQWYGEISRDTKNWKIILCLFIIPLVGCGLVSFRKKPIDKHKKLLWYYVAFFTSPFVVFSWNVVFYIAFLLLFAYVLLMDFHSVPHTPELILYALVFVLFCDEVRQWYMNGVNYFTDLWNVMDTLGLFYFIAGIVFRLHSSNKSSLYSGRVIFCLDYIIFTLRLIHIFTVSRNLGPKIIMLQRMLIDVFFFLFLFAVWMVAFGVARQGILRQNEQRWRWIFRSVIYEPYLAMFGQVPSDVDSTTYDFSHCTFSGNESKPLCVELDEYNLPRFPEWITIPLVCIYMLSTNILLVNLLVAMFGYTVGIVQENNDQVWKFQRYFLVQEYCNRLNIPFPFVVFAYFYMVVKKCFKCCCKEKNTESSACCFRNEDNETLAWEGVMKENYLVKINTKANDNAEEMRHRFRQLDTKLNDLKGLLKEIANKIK
T3 sequence (P20309 whole entry): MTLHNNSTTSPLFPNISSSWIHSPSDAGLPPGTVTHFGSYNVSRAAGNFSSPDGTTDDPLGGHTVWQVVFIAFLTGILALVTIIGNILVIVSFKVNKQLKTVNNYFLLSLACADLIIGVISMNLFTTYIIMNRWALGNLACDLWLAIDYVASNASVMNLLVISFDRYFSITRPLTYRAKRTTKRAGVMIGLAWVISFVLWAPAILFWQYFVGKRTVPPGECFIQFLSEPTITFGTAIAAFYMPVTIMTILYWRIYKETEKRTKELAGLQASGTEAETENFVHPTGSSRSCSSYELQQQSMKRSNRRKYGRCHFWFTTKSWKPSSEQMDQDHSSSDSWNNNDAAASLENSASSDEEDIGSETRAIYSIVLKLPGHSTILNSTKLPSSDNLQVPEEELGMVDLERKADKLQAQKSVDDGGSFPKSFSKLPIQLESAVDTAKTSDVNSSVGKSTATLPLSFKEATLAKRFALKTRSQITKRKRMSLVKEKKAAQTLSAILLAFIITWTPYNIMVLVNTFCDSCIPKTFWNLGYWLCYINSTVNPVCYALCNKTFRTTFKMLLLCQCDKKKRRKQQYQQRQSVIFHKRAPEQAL
T2 sequence (Q7Z2W7 whole entry): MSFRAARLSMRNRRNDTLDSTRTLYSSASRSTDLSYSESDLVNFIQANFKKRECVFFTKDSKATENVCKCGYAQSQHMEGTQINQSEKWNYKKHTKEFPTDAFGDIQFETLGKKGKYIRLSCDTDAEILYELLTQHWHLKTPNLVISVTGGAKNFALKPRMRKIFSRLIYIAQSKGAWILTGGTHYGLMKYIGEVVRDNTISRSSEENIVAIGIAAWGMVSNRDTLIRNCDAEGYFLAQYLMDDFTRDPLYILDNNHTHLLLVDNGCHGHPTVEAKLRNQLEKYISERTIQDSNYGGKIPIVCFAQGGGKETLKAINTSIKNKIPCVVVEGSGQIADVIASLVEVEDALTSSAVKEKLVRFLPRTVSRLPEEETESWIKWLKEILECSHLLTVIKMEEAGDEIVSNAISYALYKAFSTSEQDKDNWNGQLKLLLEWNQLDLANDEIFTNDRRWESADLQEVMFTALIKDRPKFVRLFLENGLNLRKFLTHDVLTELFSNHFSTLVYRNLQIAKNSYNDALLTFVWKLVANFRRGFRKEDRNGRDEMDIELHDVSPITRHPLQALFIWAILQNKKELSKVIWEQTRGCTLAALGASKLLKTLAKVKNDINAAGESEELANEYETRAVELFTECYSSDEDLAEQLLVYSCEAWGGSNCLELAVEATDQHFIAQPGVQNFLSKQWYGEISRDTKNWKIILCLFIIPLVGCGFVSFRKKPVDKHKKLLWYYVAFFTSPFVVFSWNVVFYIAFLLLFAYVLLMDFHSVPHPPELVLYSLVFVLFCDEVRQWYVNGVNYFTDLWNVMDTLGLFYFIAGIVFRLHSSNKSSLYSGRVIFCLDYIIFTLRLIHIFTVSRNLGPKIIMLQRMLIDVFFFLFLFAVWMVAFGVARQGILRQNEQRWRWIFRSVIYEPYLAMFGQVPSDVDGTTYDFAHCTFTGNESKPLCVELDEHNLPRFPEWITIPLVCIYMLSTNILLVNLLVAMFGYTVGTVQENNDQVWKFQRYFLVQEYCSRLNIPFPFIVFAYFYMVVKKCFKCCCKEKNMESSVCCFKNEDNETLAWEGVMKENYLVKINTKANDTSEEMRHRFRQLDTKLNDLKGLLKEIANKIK

`C[C@@H]1C(=O)N(C[C@H](Cc2ccccc2)N(Cc2ccccc2)Cc2ccccc2)[C@]1(Cc1ccccc1)C(=O)OC(C)(C)C` [RGM8-51, 4(S)-Benzyl-3S-methyl-4-(tert-butoxy)carbonyl-1-[(2′S-dibenzylamino-3′-phenyl)prop-1′-yl]-2-oxoazetidine] was tested, and the IC50 ([1]; HEK293-rTRPM8, 100 μM menthol) was 1060 ± 1210 nM, the “ability to activate TRPM8 channels (agonist activity)” value ([1]; HEK293 cells expressing rat or human TRPM8) was “did not have any ability to activate TRPM8 channels” and the IC50 [2] was 1740 ± 1190 nM. For the same compound, the “Binding hM3 (%), inhibition of specific binding” value ([3]; 10 μM) was “did not show significant affinity” and the inhibition at 10 µM ([3]; read-out: Binding hM3 (%), inhibition of specific binding) was -4.1 ± 3.1%.
